This is an account of results in patent US5389634A, “Imidazole derivatives having angiotensin II receptor antagonistic activity” (Roussel-Uclaf, priority 1990, dated 1995).

The target in one assay is T1, angiotensin II receptor (Rattus norvegicus, UniProt P25095).
T1 construct: A fresh membrane preparation obtained from the liver of a rat was used; from tissue; host or cells: rat liver membranes
T1 sequence (P25095 1-359): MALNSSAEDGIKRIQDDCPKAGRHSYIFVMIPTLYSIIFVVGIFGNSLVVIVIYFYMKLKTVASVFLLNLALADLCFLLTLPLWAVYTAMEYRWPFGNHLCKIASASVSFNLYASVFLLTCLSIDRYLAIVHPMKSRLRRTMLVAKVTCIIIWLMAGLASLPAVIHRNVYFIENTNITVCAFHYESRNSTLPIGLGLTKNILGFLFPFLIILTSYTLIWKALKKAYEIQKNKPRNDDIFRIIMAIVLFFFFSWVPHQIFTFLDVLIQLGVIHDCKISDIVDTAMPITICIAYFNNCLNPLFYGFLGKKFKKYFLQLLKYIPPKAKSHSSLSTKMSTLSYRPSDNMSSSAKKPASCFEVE
Briefly: Test on the angiotensin II receptor (displacement of I^125 angiotensin II on rat liver membrane preparation). Type of assay: binding. The note with it: 25° C., 150 minutes, pH 7.4, read-out: IC50 (50% inhibiting concentration, displacement of specific radioactivity fixed on the receptor). On the procedure: A fresh membrane preparation obtained from the liver of a rat was used and the tissue was ground up in a polytron in a Tris 50 mM buffer pH 7.4. The grinding was followed by 3 centrifugations at 30,000 g for 15 minutes and the deposits were taken up in between in the Tris buffer pH 7.4. The last deposits were suspended in an incubation buffer (Tris 20 mM, NaCl 135 mM, KCl 10 mM, glucose 5 mM, MgCl2 10 mM PMSF 0.3 mM, bacitracin 0.1 mM, BSA 0.2%) The aliquoted fractions of 2 ml were divided into hemolysis tubes and I^125 angiotensin II (25,000 DPM per tube) and the product to be studied were added. The product was first tested at 3×10^-5 M three times. When the tested product displaced by more than 50% the radioactivity linked specifically to the receptor, it was tested again according to a range of 7 concentrations to determine the concentration which inhibited by 50% the radioactivity linked specificaly to the receptor. In this way, the 50% inhibiting concentration was determined.
The non-specific bond was determined by addition of the product of Example 94 of European Patent No. 0,253,310, at 10^-5 M (three times). The medium was incubated at 25° C. for 150 minutes, put in a water bath at 0° C. for 5 minutes, filtered under vacuum, rinsed with Tris buffer pH 7.4 and the radioactivity was counted in the presence of scintillating Triton. The results were expressed directly as the 50% inhibiting concentration (IC50), that is as the concentration of studied product, expressed in nM, necessary to displace 50% of the specific radioactivity fixed on the receptor studied.
`CCCCc1nc2ccc(C(=O)O)cc2n1Cc1ccc(C(=O)O)cc1` [Example 2, 2-Butyl-1-((4-carboxyphenyl)-methyl)-1H-benzimidazol-6-carboxylic acid]: the IC50 is 2350 nM. For `CCCCc1nc2ccccc2n1Cc1ccc(C(=O)O)cc1` [Example 5, 4-((2-butyl-1H-benzimidazol-1-yl)-methyl) benzoic acid], the IC50 is 1440 nM. In the case of `CCCCc1nc2ccccc2n1Cc1ccc(C(=O)Nc2cccc3[nH]ccc23)cc1` [Example 6, 4-((2-butyl-1H-benzimidazol-1-yl)-methyl)-N-(1H-indol-4-yl) benzamide], the IC50 turned out to be 3460 nM.

In the case of `CCCCc1nc2cc3ccccc3cc2n1Cc1ccc(C(=O)O)cc1` [Example 10, 4-((2-butyl-1H-naphth(2,3-d)imidazol-1-yl)-methyl) benzoic acid], the IC50 was 2270 nM.

For `CCCCc1nc2cc(C)c(C)cc2n1Cc1ccc(C(=O)O)cc1` [Example 15, 4-((2-butyl-5,6-dimethyl-1H-benzimidazol-1-yl)-methyl) benzoic acid], the IC50 was found to be 3610 nM. Take `CCCCc1nc2ccncc2n1Cc1ccc(C(=O)O)cc1` [Example 20, 4-((2-butyl-3H-imidazo(4,5-c)pyridin-3-yl)-methyl) benzoic acid]: the IC50 worked out at 2720 nM. Same read-out and setting: under `CCCCc1nc2ncccc2n1Cc1ccc(-c2ccccc2C(=O)O)cc1` [Example 27, 4'-((2-butyl-1H-imidazo-(4,5-b)-pyridin-1-yl)-methyl)-(1,1'-biphenyl)-2-carboxylic acid] stands 89 nM; under `CCCCc1nc2cscc2n1Cc1ccc(-c2ccccc2C(=O)O)cc1` [Example 34, 4'-((2-butyl-1H-thieno-(3,4-d)-imidazol-1-yl)-methyl)-(1,1'-biphenyl)-2-carboxylic acid], 789 nM.

The subject of another assay is angiotensin II on the isolated portal vein. The assay is described as follows: Antagonistic activity of angiotensin II on the isolated portal vein. Type of assay: cell-based, male Wistar rats. The conditions noted are these: isolated rat portal vein, angiotensin II 3.10^-8 M, compound 15 minutes before stimulation, 37° C.; read-out: IC50 (concentration which produced a 50% inhibition of the response to angiotensin). The method, then: The portal vein of male Wistar rats weighing about 350 g (IFFA Credo France) was removed after cervical dislocation and placed rapidly in a physiological solution (see below) at ambient temperature. A ring of about 1 mm was mounted in a bath having an isolated organ containing 20 ml of the following physiological solution (composition in mM: NaCl 118.3-KCl […]-MgSO4 1.2-KH2 PO4 1.2-NaHCO3 25-glucose 11.1-CaCl2 2.5). The medium was maintained at 37° C. and oxygenated with an O2 (95%), CO2 (5%) mixture. The initial pressure imposed was 1 g, the rings were left at rest for 60 to 90 minutes. To avoid spontaneous contractions, verapamil was added to the incubation bath (1.10^-6 M).
At the end of the rest period, angiotensin II (Ciba hypertensin) 3.10^-8 M was added to the incubation bath and left in contact with the preparation for 1 minute. This operation was repeated every 30 minutes with the tissue being washed 3 or 4 times between two stimulations by angiotensin. The compound to be studied was introduced into the bath 15 minutes before a new stimulation by angiotensin. From increasing concentrations of the molecule being applied, an IC50 (concentration which produced a 50% inhibition of the response to angiotensin) can be calculated, this being expressed in nanomoles.
In the case of `CCCCc1nc2ccc(C(=O)O)cc2n1Cc1ccc(C(=O)O)cc1` [Example 2, 2-Butyl-1-((4-carboxyphenyl)-methyl)-1H-benzimidazol-6-carboxylic acid], the IC50 came out at 3400 nM.

As for `CCCCc1nc2ccccc2n1Cc1ccc(C(=O)O)cc1` [Example 5, 4-((2-butyl-1H-benzimidazol-1-yl)-methyl) benzoic acid], the IC50 is 3600 nM. The same measure, in the same setting: for `CCCCc1nc2cc3ccccc3cc2n1Cc1ccc(C(=O)O)cc1` [Example 10, 4-((2-butyl-1H-naphth(2,3-d)imidazol-1-yl)-methyl) benzoic acid] the value was 3280 nM; for `CCCCc1nc2cccnc2n1Cc1ccc(C(=O)O)cc1` [Example 25], 830 nM.
